Measured values as given in PubChem BioAssay AID2359 (Sanford-Burnham Center for Chemical Genomics, 2010).

Target: Kappa-type opioid receptor (Homo sapiens) (UniProt P41145)
Assay: kappa opioid receptor activation potency – imaging, image-based, SAR follow-up (AID 2359)
Conditions: KOR agonist image-based assay (receptor translocation imaging)

Sequence of Kappa-type opioid receptor (Homo sapiens) (P41145 whole entry, looked up): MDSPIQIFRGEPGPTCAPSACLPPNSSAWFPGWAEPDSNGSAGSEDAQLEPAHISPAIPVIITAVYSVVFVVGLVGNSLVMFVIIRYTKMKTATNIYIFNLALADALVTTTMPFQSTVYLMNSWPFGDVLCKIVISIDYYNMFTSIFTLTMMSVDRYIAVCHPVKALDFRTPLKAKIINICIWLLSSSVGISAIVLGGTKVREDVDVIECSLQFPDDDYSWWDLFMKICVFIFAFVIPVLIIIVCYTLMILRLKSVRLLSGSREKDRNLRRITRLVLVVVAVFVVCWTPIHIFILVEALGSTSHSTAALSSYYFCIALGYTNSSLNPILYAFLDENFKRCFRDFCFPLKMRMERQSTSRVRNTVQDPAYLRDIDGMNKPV

| SMILES | EC50 [µM] |
| --- | --- |
| COc1ccc(CN(Cc2ccccn2)C(=O)CN2C(=O)COc3ccccc32)cc1 | 10.1 |
| CCCCN(Cc1cc2cc(C)ccc2[nH]c1=O)C(=O)c1ccccn1 | 4.93 |
